Results from ChEMBL document CHEMBL3886212, “Disubstituted 3,4-diamino-3-cyclobutene-1,2-dione compounds for use in the treatment of chemokine-mediated diseases” (2015).
pIC50: −log10 of the molar value.

Key:
[1] = target: T1, C-X-C chemokine receptor type 2 (Homo sapiens, UniProt P25025); assay: (§1) Assay Drug Dev Technol. 2007 February; 5(1); 137-44).; assay type: cell-based
T1 sequence (P25025 whole entry): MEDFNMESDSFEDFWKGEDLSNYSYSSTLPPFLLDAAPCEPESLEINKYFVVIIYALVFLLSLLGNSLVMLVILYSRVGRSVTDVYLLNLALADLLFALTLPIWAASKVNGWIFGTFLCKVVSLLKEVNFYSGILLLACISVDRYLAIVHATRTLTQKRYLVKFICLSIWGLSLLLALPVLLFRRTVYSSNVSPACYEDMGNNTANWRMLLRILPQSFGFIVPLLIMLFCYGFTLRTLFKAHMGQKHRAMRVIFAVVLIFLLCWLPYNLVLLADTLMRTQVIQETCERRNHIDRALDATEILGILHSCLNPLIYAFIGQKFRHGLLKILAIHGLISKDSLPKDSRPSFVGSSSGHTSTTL

[2] = target: T2, C-X-C chemokine receptor type 1 (Homo sapiens, UniProt P25024); assay: as §1; assay type: cell-based
T2 sequence (P25024 whole entry): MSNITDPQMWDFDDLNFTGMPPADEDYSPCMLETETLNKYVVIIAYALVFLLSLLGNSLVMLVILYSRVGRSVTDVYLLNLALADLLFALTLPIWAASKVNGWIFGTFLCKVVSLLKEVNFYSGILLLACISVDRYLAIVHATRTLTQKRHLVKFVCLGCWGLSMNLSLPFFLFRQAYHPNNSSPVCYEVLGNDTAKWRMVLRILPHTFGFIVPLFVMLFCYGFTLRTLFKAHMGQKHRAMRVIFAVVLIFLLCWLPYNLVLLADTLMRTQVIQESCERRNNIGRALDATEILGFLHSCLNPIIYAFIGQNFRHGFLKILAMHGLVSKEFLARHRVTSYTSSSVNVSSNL

pIC50 [1]: 6.80
pIC50 [2]: 5.47
SMILES: Cc1ccc(C(Nc2c(Nc3cccc(C(=O)N(C)C)c3O)c(=O)c2=O)C2(C)CCOCC2)o1 (configuration not stated)
